# Experimental data from US12234211B2, “Cycloolefin substituted heteroaromatic compounds and their use” (HUTCHISON MEDIPHARMA LIMITED, priority 2017, dated 2025).
# Where two headings read alike, the source gives them in different places.
# How the values were obtained:
# [1] = tested on: mutant IDH1; conditions: patients with AML or MDS having IDH1 mutations; cited from earlier work
# [2] = molecular target: T1, IDH2-R140Q (Homo sapiens, UniProt P48735, R140Q); assay: Fluorescent determination of IDH2-R140Q cell activity (2-HG in U87MGR140Q cells); type: cell-based; conditions: 72 hours incubation, read-out: IC50 (2-HG inhibition)
# T1 construct: expressed in transfected cells
# T1 sequence (P48735 40-452 R140Q): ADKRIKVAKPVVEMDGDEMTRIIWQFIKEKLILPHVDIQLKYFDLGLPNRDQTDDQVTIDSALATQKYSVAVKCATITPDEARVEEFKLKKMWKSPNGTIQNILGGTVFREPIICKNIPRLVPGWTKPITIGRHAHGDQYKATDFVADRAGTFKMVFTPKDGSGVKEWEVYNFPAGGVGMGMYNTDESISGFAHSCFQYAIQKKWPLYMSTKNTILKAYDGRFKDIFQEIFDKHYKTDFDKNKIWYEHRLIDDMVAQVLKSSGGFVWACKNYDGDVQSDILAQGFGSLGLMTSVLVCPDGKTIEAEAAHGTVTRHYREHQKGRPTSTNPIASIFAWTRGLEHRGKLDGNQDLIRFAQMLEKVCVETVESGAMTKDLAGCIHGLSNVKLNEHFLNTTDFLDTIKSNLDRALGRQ
# [3] = Determination of solubility in sodium phosphate buffers; type: physicochemical; conditions: for solubility at 1 h: aqueous buffer, thermodynamic from solid
# Description: • Sample standard solution: About 3-5 mg test compound was accurately weighed and added into a 5 mL sample tube, 5 mL DMSO was added. Shaking and sonicating for 1 hour. • pH 2.1 sample solution: About 1 mg test compound was accurately weighed and added into a 1 mL sample tube, 1 mL pH 2.1 sodium phosphate buffer was added. Shaking. Adding test compound to the solution, if the solution is visually clear, till there is obvious insoluble in the solution. Sonicating for 1 hour. • pH 7.4 sample solution: About 1 mg test compound was accurately weighed and added into a 1 mL sample tube, 1 mL pH 7.4 sodium phosphate buffer was added. Shaking. Adding test compound to the solution, if the solution is visually clear, till there is obvious insoluble in the solution. Sonicating for 1 hour. 2. Determination • 1 mL sample standard solution was accurately pipetted into a HPLC tube. The peak area was determined by HPLC. • 0.5 mL pH 2.1 sample solution was filtered by syringe filter and was accurately pipetted into a HPLC tube, and 0.5 mL pH 2.1 sodium phosphate buffer was accurately added. Shaking. The peak area was determined by HPLC. • 0.5 mL pH 7.4 sample solution was filtered by syringe filter and was accurately pipetted into a HPLC tube, and 0.5 mL pH 7.4 sodium phosphate buffer was accurately added. Shaking. The peak area was determined by HPLC. • HPLC condition: • Instrument: Agilent 1200 • Column: Agilent SB-C18 5 u 4.6*150 mm • Mobile phase: • Phase A: Water (containing 0.1% formic acid) • Phase B: MeOH (containing 0.1% formic acid)
# [4] = molecular target: T2, IDH1-R132H (Homo sapiens, UniProt O75874, R132H); assay: Fluorescent determination of IDH1-R132H cell activity (2-HG in U87MGR132H cells); type: cell-based; conditions: 2-HG inhibition in U87MGR132H cells transfected with IDH1-R132H mutant plasmid
# T2 construct: expressed in transfected cells; host or cells: U87MG cells (U87MGR132H)
# [5] = Metabolic stability test in liver microsomes (mouse); type: in vitro ADME; conditions: percentage of remaining compound after incubation for 30 minutes vs 0 minute; 1 μM compound; 0.5 mg/mL liver microsomes; 37° C.
# Description: (§1) Male CD1 mouse liver microsomes was supplied by Research Institute for Liver Diseases (Shanghai) Co., Ltd. Male SD rat liver microsomes was supplied by BioreclamationIVT in US.
# (§2) Phenacetin, glucose-6-phosphate (G-6-P), glucose-6-phosphate dehydrogenase (G-6-PD), and nicotinamide adenine dinucleotide phosphate (NADP) were supplied by Sigma-Aldrich (Missouri, USA).
# (§3) 10 mM stock solution of test compound: Certain amount of test compound was weighed and dissolved in certain volume of dimethylsulfoxide (DMSO) to get the stock solution of test compound at 10 mM.
# (§4) Reaction termination solution: Certain amount of phenacetin as internal standard was weighed and dissolved in acetonitrile to get the reaction termination solution at 1000 ng/mL, and stored at room temperature for use.
# (§5) The stock solution of test compound was diluted to the designated concentration with organic solution (usually the mixtures of acetonitrile, methanol and water with different portions depending on the compound solution) to make the final concentration to be 1 μM and the contents of organic solvents no more than 1% (For DMSO, the controlled margin was 0.1%) in the final incubation system. 100 mM NADP, 500 mM G-6-P and 100 U/mL G-6-PDH were mixed and diluted with ultrapure water to provide the NADPH regenerating system containing 1 mM NADP, 5 mM G-6-P and 1 U/mL G-6-PD, which was pre-incubated at 37° C. water-bath for 10 min and then cooled on ice until being added into the reaction system. 20 mg/mL liver microsomes was mixed with 200 mM PBS and diluted with ultrapure water to make the concentrations of liver microsomes and PBS to be 0.5 mg/mL and 50 mM in the final incubation system, respectively. After the diluted liver microsomes was mixed with the NADPH regenerating solution, certain volumes of 100 mM EDTA and 300 mM MgCl2 (concentration of EDTA and MgCl2 in the final incubation system is 1 mM and 3 mM, respectively) were added, and the incubation system was put into 37° C. water bath. The incubation was commenced by adding the stock solution of test compound and maintained for 30 min. The incubation was terminated by adding the reaction termination solution. The 0 min sample was prepared by adding the reaction termination solution to the incubation system immediately prior to putting the system into the water bath with the addition of the stock solution of test compound. The terminated incubation mixtures were vortexed and centrifuged at 4400 rpm for 10 min, and the supernatant was collected for LC-MS/MS analysis.
# (§6) The concentration of test compound was determined using LC-MS/MS method. Using the peak area ratio of the compound and the internal standard as an index, the percentage of remaining compound after incubation for 30 minutes as compared with the 0 minute sample was calculated, and the metabolic stability of the compound was evaluated.
# [6] = Metabolic stability test in liver microsomes (rat); type: in vitro ADME; conditions: percentage of remaining compound after incubation for 30 minutes vs 0 minute; 1 μM compound; 0.5 mg/mL liver microsomes; 37° C.
# Description: as §1, §2, §3, §4, §5, §6
# [7] = pH 2.1 sodium phosphate buffer, read-out: Solubility pH 2.1
# [8] = pH 7.4 sodium phosphate buffer, read-out: Solubility pH 7.4
# T2 sequence (O75874 whole entry R132H): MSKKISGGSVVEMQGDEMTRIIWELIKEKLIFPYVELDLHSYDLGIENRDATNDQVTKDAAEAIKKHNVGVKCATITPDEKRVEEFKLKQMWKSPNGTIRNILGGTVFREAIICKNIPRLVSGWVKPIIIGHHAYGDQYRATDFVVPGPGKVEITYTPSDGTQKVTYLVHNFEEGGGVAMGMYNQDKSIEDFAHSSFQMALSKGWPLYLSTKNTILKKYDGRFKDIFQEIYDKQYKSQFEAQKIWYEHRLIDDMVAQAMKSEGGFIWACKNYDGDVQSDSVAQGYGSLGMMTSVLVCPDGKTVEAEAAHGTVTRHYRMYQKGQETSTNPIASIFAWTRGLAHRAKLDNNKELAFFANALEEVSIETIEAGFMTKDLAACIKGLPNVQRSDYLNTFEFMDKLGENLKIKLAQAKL
SMILES,IC50 [2] [µM],"solubility at 1 h [3, 7] [µg/mL]","solubility at 1 h [3, 8] [µg/mL]",IC50 [4] [µM],Mouse liver microsome stability [5] [%],Rat liver microsome stability [6] [%],Solubility pH 2.1 ([3]; pH 2.1 sodium phosphate buffer) [mg/mL],Solubility pH 7.4 ([3]; pH 7.4 sodium phosphate buffer) [mg/mL],patients with decreased levels of α-hydroxyglutaric acid (2HG) [1] [%]
N#Cc1ccnc(N2C(=O)CC[C@H]2C(=O)N(c2cncc(F)c2)[C@H](C(=O)NC2CC(F)(F)C2)c2ccccc2Cl)c1 [AG-120],,,,,,,,,98
C[C@@H](Nc1nc(Nc2ccc3cccnc3c2)nc(C2=C(F)C(O)CCC2)n1)C(F)(F)F (stereo partly drawn) [Compound 68],0.435,141,< 5,,,,,,
"C[C@@H](Nc1nc(N[C@H](C)C(F)(F)F)nc(C2=C(F)C(O)C(F)CC2)n1)C(F)(F)F (single isomer, unassigned) [Compound 97]",0.052,77,21,0.047,89.5,98.5,,,
OC1CCCCC(c2nc(NC3CC(F)(F)C3)nc(NC3CC(F)(F)C3)n2)=C1F (stereo not drawn) [Compound 20],0.232,570,62,,,,,,
CC(C)Nc1nc(N[C@H](C)C(F)(F)F)nc(C2=CC(O)CC2)n1 (mixture of isomers) [Compound 125],1.67,448,19,,,,,,
C[C@@H](Nc1nc(NCc2ccccn2)nc(C2=C(F)C(O)C(F)(F)CC2)n1)C(F)(F)F (mixture of isomers) [Compound 271],,974,124,,,,,,
C[C@@H](Nc1nc(N[C@H](C)C(F)(F)F)nc(C2=C(F)C(O)C(F)(F)CC2)n1)C(F)(F)F (mixture of isomers) [Compound 196],0.094,,,0.21,95.2,100.0,,,
"OC1C(F)=C(c2nc(NC3CC(F)(F)C3)nc(NC3CC(F)(F)C3)n2)CCC1F (single isomer, unassigned) [Compound 201]",0.045,,,0.109,79.3,91.6,,,
"C[C@@H](Nc1nc(N[C@H](C)C(F)(F)F)nc(C2=C(F)C(O)C(F)(F)CC2)n1)C(F)(F)F (single isomer, unassigned) [Compound 197]",0.041,,,0.12,98.4,99.5,,,
C[C@@H](Nc1nc(C2=C(F)C(O)C(F)(F)CC2)nc(N2CC(F)(F)C2)n1)C(F)(F)F (stereo partly drawn) [Compound 243],1.17,55,< 5,> 10,,,,,
CC(C)(C)ONc1nc(Nc2ccnc(C(F)(F)F)c2)nc(C2=C(F)C(O)CCC2)n1 (stereo not drawn) [Compound 71],0.05,64,55,3.05,,,,,
"C[C@@H](Nc1nc(N[C@H](C)C(F)(F)F)nc(C2=C(F)C(O)C(F)CC2)n1)C(F)(F)F (single isomer, unassigned) [Compound 98]",0.344,,,0.254,83.7,99.2,,,
[2H]C1([2H])CCC(c2nc(NC3CC(F)(F)C3)nc(NC3CC(F)(F)C3)n2)=C(F)C1O (stereo not drawn) [Compound 85],0.035,,,0.207,64.0,78.1,,,
C[C@@H](Nc1nc(N[C@H](C)C(F)(F)F)nc(C2=C(F)C(O)C3(CC2)CC3)n1)C(F)(F)F (mixture of isomers) [Compound 219],0.707,190,60,3.23,,,,,

# Now from value to compound, other results behind:
IC50 [2] [µM],"solubility at 1 h [3, 7] [µg/mL]","solubility at 1 h [3, 8] [µg/mL]",IC50 [4] [µM],Mouse liver microsome stability [5] [%],Rat liver microsome stability [6] [%],Solubility pH 2.1 ([3]; pH 2.1 sodium phosphate buffer) [mg/mL],Solubility pH 7.4 ([3]; pH 7.4 sodium phosphate buffer) [mg/mL],SMILES,patients with decreased levels of α-hydroxyglutaric acid (2HG) [1] [%]
,789,818,,,,,,"Nc1nc(N)nc(C2=C(F)C(O)C(F)(F)CC2)n1 (stereo not drawn) [Compound 284, 3-(4,6-Diamino-1,3,5-triazin-2-yl)-2,6,6-trifluorocyclohex-2-en-1-ol]",
0.866,> 1000,716,,,,,,C[C@@H](Nc1nc(N[C@H]2CCOC2)nc(C2=C(F)C(O)CCC2)n1)C(F)(F)F (mixture of isomers) [Compound 3],
0.571,> 1000,85,,,,,,CC(C)Nc1nc(N[C@H](C)C(F)(F)F)nc(C2=C(F)C(O)CC(C)(C)C2)n1 (mixture of isomers) [Compound 9],
,,,,93.1,92.9,0.146,0.037,"[2H]C1([2H])CCC(c2nc(N[C@H](C)C(F)(F)F)nc(N[C@H](C)C(F)(F)F)n2)=C(F)C1O (stereo partly drawn) [Compound 82, (*)3-(4,6-Bis(((R)-1,1,1-trifluoropropan-2-yl)amino)-1,3,5-triazin-2-yl)-2-fluorocyclohex-2-en-6,6-D2-1-ol]",
0.048,,,0.081,81.4,88.8,,,"C[C@@H](Nc1nc(NC2CC(F)(F)C2)nc(C2=C(F)C(O)C(F)CC2)n1)C(F)(F)F (single isomer, unassigned) [Compound 227]",
0.115,,,0.67,76.3,70.0,,,C[C@@H](Nc1nc(NC2CCC(F)(F)C2)nc(C2=C(F)C(O)CCC2)n1)C(F)(F)F (mixture of isomers) [Compound 6],
0.083,,,0.421,66.2,83.8,,,[2H]C1(O)CCCC(c2nc(NC3CC(F)(F)C3)nc(NC3CC(F)(F)C3)n2)=C1F (stereo not drawn) [Compound 19],
0.097,,,0.175,99.7,98.8,,,[2H]C1(O)C(F)=C(c2nc(N[C@H](C)C(F)(F)F)nc(N[C@H](C)C(F)(F)F)n2)CCC1(F)F (mixture of isomers) [Compound 211],
